Each compound was assayed on GDF8 signaling (p-SMAD-3 (Ser423/425)) (assay: AlphaScreen SureFire SMAD3 (p-Ser423/425) assay, GDF8-stimulated cells (GDF pSMAD)). Conditions: Mus musculus, MPC-11, MPC11; GDF8-stimulated; p-SMAD3 AlphaScreen; read-out: GDF pSMAD (MPC11) (inhibition of GDF8 signaling).
Type: cell-based

| IC50 | SMILES |
| --- | --- |
| 0.226 µM | Cc1ccc(F)c(-c2ncccc2-c2ccc3ncsc3c2)c1 [compound 667, 6-(2-(2-Fluoro-5-methylphenyl)pyridin-3-yl)benzo[d]thiazole] |
| 0.313 µM | Clc1cccc(-c2ncccc2-c2ccc3ncsc3c2)c1 [compound 668, 6-(2-(3-Chlorophenyl)pyridin-3-yl)benzo[d]thiazole] |
| 0.499 µM | COc1cccc(-c2ncccc2-c2ccc3ncsc3c2)c1 [compound 669, 6-(2-(3-Methoxyphenyl)pyridin-3-yl)benzo[d]thiazole] |
| 0.367 µM | N#Cc1cccc(-c2ncccc2-c2ccc3ncsc3c2)c1 [compound 670, 3-(3-(Benzo[d]thiazol-6-yl)pyridin-2-yl)benzonitrile] |
| 0.273 µM | Cc1cc(-c2ncccc2-c2ccn3ncc(C(=O)NCCCN4CCOCC4)c3c2)ccc1F [compound 672, 5-(2-(4-Fluoro-3-methylphenyl)pyridin-3-yl)-N-(3-morpholinopropyl)pyrazolo[1,5-a]pyridine-3-carboxamide] |
| 0.375 µM | Cc1cc(-c2ncccc2-c2ccn3ncc(C(=O)NCCN(C)C)c3c2)ccc1F [compound 673, N-(2-(Dimethylamino)ethyl)-5-(2-(4-fluoro-3-methylphenyl)pyridin-3-yl)pyrazolo[1,5-a]pyridine-3-carboxamide] |
| 0.211 µM | Cc1cc(-c2ncccc2-c2ccn3ncc(C(=O)NCCN4CCOCC4)c3c2)ccc1F [compound 674, 5-(2-(4-Fluoro-3-methylphenyl)pyridin-3-yl)-N-(2-morpholinoethyl)pyrazolo[1,5-a]pyridine-3-carboxamide] |
| 0.227 µM | Cc1cc(-c2ncccc2-c2ccn3ncc(C(=O)NCCCN4CCCC4)c3c2)ccc1F [compound 675, 5-(2-(4-Fluoro-3-methylphenyl)pyridin-3-yl)-N-(3-(pyrrolidin-1-yl)propyl)pyrazolo[1,5-a]pyridine-3-carboxamide] |
| 0.267 µM | Cc1cc(-c2ncccc2-c2ccn3ncc(C(=O)NCCCN4CCN(C)CC4)c3c2)ccc1F [compound 676, 5-(2-(4-Fluoro-3-methylphenyl)pyridin-3-yl)-N-(3-(4-methylpiperazin-1-yl)propyl)pyrazolo[1,5-a]pyridine-3-carboxamide] |
| 0.562 µM | CCOC(=O)c1cnn2ccc(-c3cccnc3-c3ccc(F)c(C)c3)cc12 [compound 677, Ethyl 5-(2-(4-Fluoro-3-methylphenyl)pyridin-3-yl)pyrazolo[1,5-a]pyridine-3-carboxylate] |
| 2.47 µM | Cc1cc(-c2ncccc2-c2ccn3ncc(C(=O)O)c3c2)ccc1F [compound 678, 5-(2-(4-Fluoro-3-methylphenyl)pyridin-3-yl)pyrazolo[1,5-a]pyridine-3-carboxylic acid] |
| 10.8 µM | Cc1cc(-c2ncccc2-c2ccc3ncc(C(=O)N[C@@H]4CCCC[C@H]4N)n3c2)ccc1F [compound 679, N-((1R,2R)-2-Aminocyclohexyl)-6-(2-(4-fluoro-3-methylphenyl)pyridin-3-yl)imidazo[1,2-a]pyridine-3-carboxamide] |
| 2.13 µM | Cc1cc(-c2ncccc2-c2ccc3ncc(C(=O)N[C@H]4CCCC[C@@H]4N)n3c2)ccc1F [compound 680, N-((1S,2S)-2-Aminocyclohexyl)-6-(2-(4-fluoro-3-methylphenyl)pyridin-3-yl)imidazo[1,2-a]pyridine-3-carboxamide] |
| 0.288 µM | Cc1cc(-c2ncccc2-c2ccc3ncc(C(=O)NCCN)n3c2)ccc1F [compound 681, N-(2-Aminoethyl)-6-(2-(4-fluoro-3-methylphenyl)pyridin-3-yl)imidazo[1,2-a]pyridine-3-carboxamide] |
| 0.539 µM | Cc1cc(-c2ncccc2-c2ccc3ncc(C(=O)NCCCN)n3c2)ccc1F [compound 682, N-(3-Aminopropyl)-6-(2-(4-fluoro-3-methylphenyl)pyridin-3-yl)imidazo[1,2-a]pyridine-3-carboxamide] |
| 0.234 µM | Cc1cc(-c2ncccc2-c2ccn3ncc(C(=O)NCCN)c3c2)ccc1F [compound 683, N-(2-Aminoethyl)-5-(2-(4-fluoro-3-methylphenyl)pyridin-3-yl)pyrazolo[1,5-a]pyridine-3-carboxamide] |

| IC50 | SMILES |
| --- | --- |
| 0.593 µM | Cc1cc(-c2ncccc2-c2ccn3ncc(C(=O)NCCCN)c3c2)ccc1F [compound 684, N-(3-Aminopropyl)-5-(2-(4-fluoro-3-methylphenyl)pyridin-3-yl)pyrazolo[1,5-a]pyridine-3-carboxamide] |
| 0.15 µM | COC(=O)c1cnc2ccc(-c3cccnc3-c3ccc(F)c(C)c3)cn12 [compound 685, Methyl 6-(2-(4-fluoro-3-methylphenyl)pyridin-3-yl)imidazo[1,2-a]pyridine-3-carboxylate] |
| 0.205 µM | Fc1ccc(-c2ncccc2-c2ccc3ncsc3c2)cc1Cl [compound 686, 6-(2-(3-Chloro-4-fluorophenyl)pyridin-3-yl)benzo[d]thiazole] |
| 0.172 µM | Fc1ccc(-c2ncccc2-c2ccc3nccn3c2)cc1Cl [compound 687, 6-(2-(3-Chloro-4-fluorophenyl)pyridin-3-yl)imidazo[1,2-a]pyridine] |
| 1.26 µM | Fc1ccc(-c2ncccc2-c2ccc3ncccc3c2)cc1Cl [compound 688, 6-(2-(3-Chloro-4-fluorophenyl)pyridin-3-yl)quinoline] |
| 0.516 µM | N#Cc1cnc2ccc(-c3cccnc3-c3ccc(F)c(Cl)c3)cn12 [compound 689, 6-(2-(3-Chloro-4-fluorophenyl)pyridin-3-yl)imidazo[1,2-a]pyridine-3-carbonitrile] |
| 0.414 µM | Fc1ccc(-c2ncccc2-c2ccc3nccnc3c2)cc1Cl [compound 690, 6-(2-(3-Chloro-4-fluorophenyl)pyridin-3-yl)quinoxaline] |
| 0.447 µM | Fc1ccc(-c2ncccc2-c2ccc3ncccc3n2)cc1Cl [compound 691, 2-(2-(3-Chloro-4-fluorophenyl)pyridin-3-yl)-1,5-naphthyridine] |
| 0.436 µM | Fc1ccc(-c2ncccc2-c2ccc3ncnn3c2)cc1Cl [compound 692, 6-(2-(3-Chloro-4-fluorophenyl)pyridin-3-yl)-[1,2,4]triazolo[1,5-a]pyridine] |
| 0.507 µM | Fc1cc(F)c(-c2ncccc2-c2ccc3ncsc3c2)cc1F [compound 693, 6-(2-(2,4,5-Trifluorophenyl)pyridin-3-yl)benzo[d]thiazole] |
| 0.794 µM | Fc1cc(F)c(-c2ncccc2-c2ccc3nccn3c2)cc1F [compound 694, 6-(2-(2,4,5-Trifluorophenyl)pyridin-3-yl)imidazo[1,2-a]pyridine] |
| 1.52 µM | N#Cc1cnc2ccc(-c3cccnc3-c3cc(F)c(F)cc3F)cn12 [compound 695, 6-(2-(2,4,5-Trifluorophenyl)pyridin-3-yl)imidazo[1,2-a]pyridine-3-carbonitrile] |
| 2.11 µM | Fc1cc(F)c(-c2ncccc2-c2ccc3ncccc3c2)cc1F [compound 696, 6-(2-(2,4,5-Trifluorophenyl)pyridin-3-yl)quinoline] |
| 0.415 µM | N#Cc1cnc2ccc(-c3cccnc3-c3cccc(Cl)c3)cn12 [compound 697, 6-(2-(3-Chlorophenyl)pyridin-3-yl)imidazo[1,2-a]pyridine-3-carbonitrile] |
| 0.145 µM | Clc1cccc(-c2ncccc2-c2ccc3nccn3c2)c1 [compound 698, 6-(2-(3-Chlorophenyl)pyridin-3-yl)imidazo[1,2-a]pyridine] |
| 2.3 µM | Clc1cccc(-c2ncccc2-c2ccc3ncccc3c2)c1 [compound 699, 6-(2-(3-Chlorophenyl)pyridin-3-yl)quinolone] |

Reference: patent US10858335B2 (Rigel Pharmaceuticals, Inc., priority 2014, dated 2020)
